Experimental data: US20230303613A1, “3′3′ CYCLIC DINUCLEOTIDES WITH AN ALKENYLENE” (Institute of Organic Chemistry and Biochemistry AS CR, v.v.i, priority 2020, published 2023)

Assays:
[1] = target: T1, WT STING (Homo sapiens, UniProt Q86WV6, H232R); test: Digitonin assay using 293T wtSTING-FL reporter cells; type: cell-based; conditions: 293T wtSTING-FL cells; 30 minutes in Digitonin buffer, then 5 hours; ISRE firefly luciferase reporter
Text: (§1) Two complementary oligonucleotides of the sequence […] […] […] […] […] The oligonucleotides were mixed in equal molar amounts, hybridized, and cleaved by restriction endonucleases HindIII (cat. #. R0104S, NEB, Ipswich, USA) and BglII (cat. # R0144S, NEB, Ipswich, USA). Ultimately, they were ligated into plasmid pGL4.27 (cat. # E6651, Promega, Madison, USA) linearized with the same enzymes. As result the sequence with four ISRE sites was placed upstream of the minimum promoter of firefly luciferase reporter gene.
(§2) After 5 minutes incubation at room temperature (RT), 250 µL of the mixture was added dropwise to the cells in one well. Cells were incubated 36 hours at 37° C. with 5% CO2, and then detached with 0.05% Trypsin and 0.22 g/L EDTA (both cat. # L0941, Biowest, Riverside, USA).
(§3) Transfected cells were seeded onto poly-D-lysine coated six well plates at density 50,000 cells per 1 cm^2 in DMEM medium with high glucose containing 10% heat inactivated FBS, 30 µg/mL blasticidin (cat. # ant-bl-05, InvivoGen, San Diego, USA), 0.06 mg/ml Penicillin G and 0.1 mg/ml Streptomycin Sulfate (both cat. #. L0018, Biowest, Riverside, USA). The medium was replenished every 3 - 4 days until visible colonies of cells resistant to blasticidin were formed.
(§4) Blasticidin resistant cells stably expressing WT STING were further transfected with […] plasmid following the same procedure as described above. […] Homogeneous culture of stably double transfected cells was prepared by limiting dilution of cells in 96 well plates and wells with cells were selected that originated from a single cell.
The medium was removed next day and three fold serial dilutions of compounds in Digitonin buffer containing 50 mmol.l^-1 HEPES (cat. # H3375, Sigma Aldrich, Czech Republic) pH 7.0, 100 mmol.1^-1 KCl, 3 mmol.l^-1 MgCl2, 0.1 mmol.l^-1 DTT (cat. # D0632, Sigma Aldrich, Czech Republic), 85 mmol.1^-1 Sucrose (cat. # S7903, Sigma Aldrich, Czech Republic), 0.2% BSA (cat. # A2153, Sigma Aldrich, Czech Republic), 1 mmol.l^-1 ATP (cat. # A1852, Sigma Aldrich, Czech Republic), 0.1 mmol.1^-1 GTP (cat. # G8877, Sigma Aldrich, Czech Republic), and 10 µg/mL Digitonin A (cat. # D141, Sigma Aldrich, Czech Republic) were added to the cells. The buffer was removed after 30 minutes incubation at 37° C. with 5% CO2, the cells were washed once with 100 µl of cultivation medium, and 100 µl of medium was added to each well. The plates with cells were incubated for 5 hours at 37° C. with 5% CO2, 50µl of the medium was removed and 30 µl of ONE-Glo^Tm Luciferase Assay System reagent (cat. # E6120, Promega, Madison, USA) was added to each well. Luminescence was read on Synergy H1 (Biotek, Winooski, USA).
Target sequence in this assay (Q86WV6 whole entry H232R): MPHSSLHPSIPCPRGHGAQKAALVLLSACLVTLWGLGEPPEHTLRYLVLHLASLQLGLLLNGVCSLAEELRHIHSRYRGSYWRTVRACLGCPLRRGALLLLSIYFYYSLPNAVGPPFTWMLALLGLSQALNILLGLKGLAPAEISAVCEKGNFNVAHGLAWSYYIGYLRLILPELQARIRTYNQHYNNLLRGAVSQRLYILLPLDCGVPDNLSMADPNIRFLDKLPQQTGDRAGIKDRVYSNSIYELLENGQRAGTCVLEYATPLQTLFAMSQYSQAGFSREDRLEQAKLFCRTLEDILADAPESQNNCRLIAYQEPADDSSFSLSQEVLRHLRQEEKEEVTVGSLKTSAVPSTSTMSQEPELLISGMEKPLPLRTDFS

[2] = target: T2, AQ STING (G230A-R293Q) (Homo sapiens, UniProt Q86WV6, G230A/H232R/R293Q); test: Differential Scanning Fluorimetry with AQ STING; type: binding; conditions: thermal shift vs apoprotein, 150 µM CDN, truncated human AQ STING 0.1 mg/ml; for ΔTm at 150 µM: read-out: DSF ΔTm AQ STING
T2 construct: 8xHis (N, cleaved yes); SUMO (N, cleaved yes); made in house; host or cells: E. coli Rosetta-gami B (DE3)
Text: (§5) Purified PCR products were cleaved with restriction enzymes BamHI (cat. # R0136S, NEB, Ipswich, USA) and NotI (cat. # R0189S, NEB, Ipswich, USA) and cloned into the pSUMO vector linearized with the identical enzymes.
(§6) Bacterial pellets were re-suspended in ice-cold lysis buffer containing 50 mmol.1^-1 TrisCl (cat. # T1503, Sigma Aldrich, Czech Republic) pH 8.0, 300 mmol.1^-1 NaCl, 3 mmol.1^-1 β-mercaptoethanol (cat. # M6250, Sigma Aldrich, Czech Republic), 10% glycerol (cat. # G5516, Sigma Aldrich, Czech Republic) and 20 mmol.1^-1 imidazole (cat. # I5513, Sigma Aldrich, Czech Republic) using Dounce homogenizer. DNase I (cat. # D5025, Sigma Aldrich, Czech Republic) and RNase A (cat. # R6513, Sigma Aldrich, Czech Republic) were added (final concentration 50 µg/ml) together with MgCl2 (final concentration 5 mmol.l^-1) to the homogenate and bacteria were lysed using French Press G-M™ High-Pressure Cell Press Homogenizer (1500 psi, 3 cycles). […] The resin was poured into a chromatography column, washed with 50 ml buffer A (50 mmol.1^-1 TrisCl (pH 8.0), 800 mmol.1^-1 NaCl, 3 mmol.1^-1 β-mercaptol; 10% glycerol; 20 mmol.1^-1 imidazole) and 8-His-SUMO tagged STING proteins were eluted with 15 ml buffer A containing 300 mmol.1^-1 imidazole. […] Proteins were concentrated with Amicon® Ultra-15 10 K device (cat. # UFC901008, Merck Millipore, Billerica, USA) and flash frozen in liquid N2.
(§7) 20 µL solutions of the reaction mixtures were pipetted in triplicates into 96 well optical reaction plates and thermal denaturation of samples were performed on real time PCR cycler (LightCycler® 480 Instrument II - Roche, Basel, Switzerland). The first derivative of the thermal denaturation curves was performed to calculate denaturing temperatures of STING - CDN complexes and STING apoproteins. The thermal shift for each CDN was calculated by subtracting the average denaturing temperature of STING apoprotein from the average denaturing temperature of STING CDN complex.

[3] = target: T1, WT STING; test: Differential Scanning Fluorimetry with WT STING; type: binding; design: 8xHis (N, cleaved yes); SUMO (N, cleaved yes); made in house; host or cells: E. coli Rosetta-gami B (DE3); conditions: thermal shift vs apoprotein, 150 µM CDN, truncated human WT STING 0.1 mg/ml; for ΔTm at 150 µM: read-out: DSF ΔTm WT STING
Text: as §5, §6, §7
Target sequence in this assay (Q86WV6 140-343 H232R): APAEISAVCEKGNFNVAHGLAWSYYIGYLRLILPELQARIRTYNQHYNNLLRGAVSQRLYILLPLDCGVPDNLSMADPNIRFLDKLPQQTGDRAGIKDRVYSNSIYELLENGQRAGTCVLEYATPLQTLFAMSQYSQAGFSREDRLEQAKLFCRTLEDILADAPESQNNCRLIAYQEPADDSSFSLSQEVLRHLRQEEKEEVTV

[4] = target: T1, WT STING; test: 293T WT STING standard reporter assay; type: cell-based; conditions: 293T wtSTING-FL cells; 7 hours with compound, no digitonin; ISRE firefly luciferase reporter
Text: as §1, §2, §3, §4
Target sequence in this assay (Q86WV6 whole entry H232R): as the sequence (Q86WV6 whole entry H232R) above
The medium was removed next day and three-fold serial dilutions of compounds in 100 µl medium were added to the cells. The plates with cells were incubated for 7 hours at 37° C. with 5% CO2. After 50 µl of the medium was removed, 30 µl of ONE-Glo^Tm Luciferase Assay System reagent (cat. # E6120, Promega, Madison, USA) was added to each well and luminescence was read on Synergy H1 (Biotek, Winooski, USA).

T2 sequence (Q86WV6 140-343 G230A/H232R/R293Q): as the sequence (Q86WV6 140-343 H232R) above, with G91A, R154Q counted along it

Row | SMILES | EC50 [1] [nM] | ΔTm at 150 µM [2] [°C] | ΔTm at 150 µM [3] [°C] | DSF ΔTm AQ STING [2] [°C] | DSF ΔTm WT STING [3] [°C] | EC50 [4] [nM]
1 | CSc1ncnc2c1ncn2[C@@H]1O[C@@H]2COP(=O)(O)O[C@H]3[C@@H](O)[C@H](n4cnc5c(=O)[nH]c(N)nc54)O[C@@H]3/C=C\P(=O)(O)O[C@H]2[C@H]1O (stereo in doubt) [Compound 70, (1S,6R,8R,9R,10S,15R,17R,18R)-17-(2-amino-6-oxo-6,9-dihydro-1H-purin-9-yl)-3,9,12,18-tetrahydroxy-8-[6-(methylsulfanyl)-9H-purin-9-yl]-2,4,7,1 1,16-pentaoxa-3λ^5,12λ^5-diphosphatricyclo[13.3.0.0^6,^10]octadec-13-ene-3,12-dione] | 16100 | 1.1 | 0.5 | – | – | –
2 | Nc1nc(N)c2ncn([C@@H]3O[C@@H]4COP(=O)(O)O[C@H]5[C@@H](O)[C@H](n6cnc7c(=O)[nH]c(N)nc76)O[C@@H]5/C=C\P(=O)(O)O[C@H]4[C@H]3O)c2n1 (stereo in doubt) [Compound 69, (1S,6R,8R,9R,10S,15R,17R,18R)-17-(2-amino-6-oxo-6,9-dihydro-1H-purin-9-yl)-8-(2,6-diamino-9H-purin-9-yl)-3,9,12,18-tetrahydroxy-2,4,7,11,16-pentaoxa-3λ^5,12λ^5-diphosphatricyclo[13.3.0.0^6,^10]octadec-13-ene-3,12-dione] | 32800 | 3.5 | 1.2 | – | – | –
3 | Nc1ncnc2c1ncn2[C@@H]1O[C@@H]2COP(=O)(O)O[C@H]3[C@@H](O)[C@H](n4cnc5c(N)ncnc54)O[C@@H]3COP(=O)(O)O[C@H]2[C@H]1O [3′3′c-di-AMP, 3′3′-c-di-AMP, reference compound] | 300 | – | – | 9.3 | 2.6 | –
4 | Nc1nc2c(ncn2[C@@H]2O[C@@H]3COP(=O)(O)O[C@@H]4[C@H](O)[C@@H](COP(=O)(O)O[C@@H]2[C@@H]3O)O[C@H]4n2cnc3c(N)ncnc32)c(=O)[nH]1 [2′2′-cGAMP, reference compound] | 30 | – | – | 19.4 | 11.5 | 10200
5 | Nc1nc2c(ncn2[C@@H]2O[C@@H]3/C=C/P(=O)(O)O[C@H]4[C@@H](F)[C@H](n5cnc6c(=O)[nH]c(N)nc65)O[C@@H]4COP(=O)(O)O[C@H]3[C@H]2F)c(=O)[nH]1 [Compound 56, (1R,6R,8R,9R,10R,13E,15R,17R,18R)-8,17-bis(2-amino-6-oxo-6,9-dihydro-1H-purin-9-yl)-9,18-difluoro-3,12-dihydroxy-2,4,7,11,16-pentaoxa-3λ^5,12λ^5-diphosphatricyclo[13.3.0.0^6,^10]octadec-13-ene-X3.12-dione] | 500 | 10.6 | 4.1 | – | – | –

Next, values leading:

Row | EC50 [1] [nM] | ΔTm at 150 µM [2] [°C] | ΔTm at 150 µM [3] [°C] | DSF ΔTm AQ STING [2] [°C] | DSF ΔTm WT STING [3] [°C] | EC50 [4] [nM] | SMILES
6 | 780 | 8.6 | 1.9 | – | – | – | Nc1nc2c(ncn2[C@@H]2O[C@@H]3/C=C/P(=O)(O)O[C@H]4C[C@H](n5cnc6c(N)ncnc65)O[C@@H]4COP(=O)(O)O[C@H]3[C@H]2O)c(=O)[nH]1 [Compound 55, (1S,6R,8R,10S,13E,15R,17R,18R)-17-(2-amino-6-oxo-6,9-dihydro-1H-purin-9-yl)-8-(6-amino-9H-purin-9-yl)-3,12,18-trihydroxy-2,4,7,11,16-pentaoxa-3λ^5,12λ^5-diphosphatricyclo[13.3.0.0^6,^10]octadec-13-ene-3,12-dione]
7 | 120 | 11.3 | 6.1 | – | – | – | Nc1nc2c(ncn2[C@H]2C[C@@H]3OP(=O)(O)/C=C/[C@H]4O[C@@H](n5cnc6c(N)ncnc65)[C@H](F)[C@@H]4OP(=O)(O)OC[C@H]3O2)c(=O)[nH]1 [Compound 57, (1R,6R,8R,10S,13E,15R,17R,18R)-8-(2-amino-6-oxo-6,9-dihydro-1H-purin-9-yl)-17-(6-amino-9H-purin-9-yl)-18-fluoro-3,12-dihydroxy-2,4,7,11,16-pentaoxa-3λ^5,12λ^5-diphosphatricyclo[13.3.0.0^6,^10]octadec-13-ene-3,12-dione]
8 | 6400 | 2.9 | 0.3 | – | – | – | Nc1nc2c(ncn2[C@@H]2O[C@@H]3/C=C\P(=O)(O)O[C@H]4[C@@H](N)[C@H](n5cnc6c(N)ncnc65)O[C@@H]4COP(=O)(O)O[C@H]3[C@H]2O)c(=O)[nH]1 [Compound 67, (1S,6R,8R,9R,10S,13Z,15R,17R,18R)-9-amino-17-(2-amino-6-oxo-6,9-dihydro-1H-purin-9-yl)-8-(6-amino-9H-purin-9-yl)-3,12,18-trihydroxy-2,4,7,11,16-pentaoxa-3λ^5,12λ^5-diphosphatricyclo[13.3.0.0^6,^10]octadec-13-ene-3,12-dione]
